Reference: ChEMBL document CHEMBL1154879, “Discovery of (thienopyrimidin-2-yl)aminopyrimidines as potent, selective, and orally available pan-PI3-kinase and dual pan-PI3-kinase/mTOR inhibitors for the treatment of cancer” (J Med Chem, 2010)
Active and inactive are the calls of the source. The rule behind the calls is not given here.

Legend:
[1] = target: Mitogen-activated protein kinase kinase kinase 9 (Homo sapiens, UniProt P80192); assay: Inhibition of MLK1
[2] = Clearance in nu/nu mouse at 1 mg/kg, iv; format: ADME, organism-based; parameters: dose 1 mg/kg, route intravenous; conditions: in vivo
Mus musculus [3] = assay: Toxicity in human MCF7.1 cells expressing PI3Kalpha mutant xenografted nu/nu mouse assessed as body weight loss at 50 mg/kg, po qd for 21 days; format: organism-based; parameters: dose 50 mg/kg, route oral; conditions: in vivo, 504 h
Mus musculus [4] = assay: Inhibition of PI3K/Akt/mTOR pathway signaling in PI3Kalpha mutant expressing human MCF7.1 cells xenografted nu/nu mouse assessed as inhibition of Pras40 Thr246 phosphorylation at 12.5 mg/kg, po qd for 21 days measured 1 hr after last administered dose on day 21 by ELISA; format: functional
Mus musculus [5] = assay: Inhibition of PI3K/Akt/mTOR pathway signaling in PI3Kalpha mutant expressing human MCF7.1 cells xenografted nu/nu mouse assessed as inhibition of Akt Ser473 phosphorylation at 6.25 mg/kg, po qd for 21 days measured 4 hrs after last administered dose on day 21 by electrochemiluminescence assay; format: functional
PC-3 = assay: Antiproliferative activity against human PC3 cells deficient in PTEN in after 3 to 4 days; format: functional, cell-based
Mus musculus [6] = assay: Inhibition of PI3K/Akt/mTOR pathway signaling in PI3Kalpha mutant expressing human MCF7.1 cells xenografted nu/nu mouse assessed as inhibition of Pras40 Thr246 phosphorylation at 25 mg/kg, po qd for 21 days measured 1 hr after last administered dose on day 21 by ELISA; format: functional
Mus musculus [7] = assay: Inhibition of PI3K/Akt/mTOR pathway signaling in PI3Kalpha mutant expressing human MCF7.1 cells xenografted nu/nu mouse assessed as inhibition of Pras40 Thr246 phosphorylation at 12.5 mg/kg, po qd for 21 days measured 4 hrs after last administered dose on day 21 by ELISA; format: functional
Mus musculus [8] = assay: Toxicity in human MCF7.1 cells expressing PI3Kalpha mutant xenografted nu/nu mouse assessed as body weight loss at 12.5 mg/kg, po qd for 21 days; format: organism-based; parameters: dose 12.5 mg/kg, route oral; conditions: in vivo, 504 h
[9] = target: Phosphatidylinositol 4-kinase beta (Homo sapiens) (UniProt Q9UBF8); assay: Inhibition of PI4Kbeta at 1 uM
[10] = Antiproliferative activity against human MCF7.1 cells expressing PI3Kalpha mutant after 3 to 4 days; format: functional, cell-based
Mus musculus [11] = assay: Inhibition of PI3K/Akt/mTOR pathway signaling in PI3Kalpha mutant expressing human MCF7.1 cells xenografted nu/nu mouse assessed as inhibition of S6RP Ser235/236 phosphorylation at 12.5 mg/kg, po qd for 21 days measured 4 hrs after last administered dose on day 21 by electrochemiluminescence assay; format: functional
Mus musculus [12] = assay: Inhibition of PI3K/Akt/mTOR pathway signaling in PI3Kalpha mutant expressing human MCF7.1 cells xenografted nu/nu mouse assessed as inhibition of S6RP Ser235/236 phosphorylation at 12.5 mg/kg, po qd for 21 days measured 1 hr after last administered dose on day 21 by electrochemiluminescence assay; format: functional
[13] = target: T1, Phosphatidylinositol 4,5-bisphosphate 3-kinase catalytic subunit delta isoform (Homo sapiens, UniProt O00329)
T1 sequence (O00329 whole entry): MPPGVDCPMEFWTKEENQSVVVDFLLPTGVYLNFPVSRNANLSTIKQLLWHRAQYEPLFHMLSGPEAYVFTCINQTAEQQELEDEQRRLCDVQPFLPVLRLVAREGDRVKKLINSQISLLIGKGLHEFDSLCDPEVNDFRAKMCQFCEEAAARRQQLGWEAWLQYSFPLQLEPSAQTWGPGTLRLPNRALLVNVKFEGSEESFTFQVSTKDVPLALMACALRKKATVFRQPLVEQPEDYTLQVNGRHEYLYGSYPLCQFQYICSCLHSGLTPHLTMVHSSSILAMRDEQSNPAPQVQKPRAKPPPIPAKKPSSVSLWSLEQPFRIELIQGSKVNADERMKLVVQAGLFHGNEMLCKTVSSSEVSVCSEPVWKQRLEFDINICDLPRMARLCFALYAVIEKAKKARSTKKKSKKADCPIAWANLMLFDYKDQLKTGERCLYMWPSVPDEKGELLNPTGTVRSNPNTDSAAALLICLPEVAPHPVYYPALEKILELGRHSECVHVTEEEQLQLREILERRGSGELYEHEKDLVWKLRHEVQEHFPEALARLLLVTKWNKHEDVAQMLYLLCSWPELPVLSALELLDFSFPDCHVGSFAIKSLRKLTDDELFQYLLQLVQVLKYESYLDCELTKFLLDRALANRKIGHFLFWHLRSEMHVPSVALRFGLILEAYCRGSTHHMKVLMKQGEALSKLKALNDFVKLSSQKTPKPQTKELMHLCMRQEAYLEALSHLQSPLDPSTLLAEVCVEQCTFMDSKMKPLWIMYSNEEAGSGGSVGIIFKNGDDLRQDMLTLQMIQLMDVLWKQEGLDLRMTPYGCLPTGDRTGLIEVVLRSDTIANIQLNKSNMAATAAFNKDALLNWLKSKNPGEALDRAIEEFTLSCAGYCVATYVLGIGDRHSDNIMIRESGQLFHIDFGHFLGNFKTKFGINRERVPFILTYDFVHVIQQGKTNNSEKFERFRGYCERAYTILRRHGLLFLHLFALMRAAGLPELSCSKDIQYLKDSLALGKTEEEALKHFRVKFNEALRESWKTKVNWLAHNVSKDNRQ

[14] = target: Tyrosine-protein kinase SYK (Homo sapiens, UniProt P43405); assay: Inhibition of SYK
[15] = target: Serine/threonine-protein kinase mTOR (Homo sapiens, UniProt P42345)
[16] = AUC in nu/nu mouse at 5 mg/kg, po; format: ADME, organism-based; parameters: dose 5 mg/kg, route oral; conditions: plasma
Mus musculus [17] = assay: Inhibition of PI3K/Akt/mTOR pathway signaling in PI3Kalpha mutant expressing human MCF7.1 cells xenografted nu/nu mouse assessed as inhibition of Akt Ser473 phosphorylation at 12.5 mg/kg, po qd for 21 days measured 1 hr after last administered dose on day 21 by electrochemiluminescence assay; format: functional
Mus musculus [18] = assay: Inhibition of PI3K/Akt/mTOR pathway signaling in PI3Kalpha mutant expressing human MCF7.1 cells xenografted nu/nu mouse assessed as inhibition of Akt Ser473 phosphorylation at 6.25 mg/kg, po qd for 21 days measured 1 hr after last administered dose on day 21 by electrochemiluminescence assay; format: functional
Mus musculus [19] = assay: Inhibition of PI3K/Akt/mTOR pathway signaling in PI3Kalpha mutant expressing human MCF7.1 cells xenografted nu/nu mouse assessed as inhibition of Akt Ser473 phosphorylation at 25 mg/kg, po qd for 21 days measured 1 hr after last administered dose on day 21 by electrochemiluminescence assay; format: functional
Mus musculus [20] = assay: Inhibition of PI3K/Akt/mTOR pathway signaling in PI3Kalpha mutant expressing human MCF7.1 cells xenografted nu/nu mouse assessed as inhibition of S6RP Ser235/236 phosphorylation at 25 mg/kg, po qd for 21 days measured 4 hrs after last administered dose on day 21 by electrochemiluminescence assay; format: functional

Phosphatidylinositol 4-kinase beta (Homo sapiens), sequence (Q9UBF8 2-816 limits assumed): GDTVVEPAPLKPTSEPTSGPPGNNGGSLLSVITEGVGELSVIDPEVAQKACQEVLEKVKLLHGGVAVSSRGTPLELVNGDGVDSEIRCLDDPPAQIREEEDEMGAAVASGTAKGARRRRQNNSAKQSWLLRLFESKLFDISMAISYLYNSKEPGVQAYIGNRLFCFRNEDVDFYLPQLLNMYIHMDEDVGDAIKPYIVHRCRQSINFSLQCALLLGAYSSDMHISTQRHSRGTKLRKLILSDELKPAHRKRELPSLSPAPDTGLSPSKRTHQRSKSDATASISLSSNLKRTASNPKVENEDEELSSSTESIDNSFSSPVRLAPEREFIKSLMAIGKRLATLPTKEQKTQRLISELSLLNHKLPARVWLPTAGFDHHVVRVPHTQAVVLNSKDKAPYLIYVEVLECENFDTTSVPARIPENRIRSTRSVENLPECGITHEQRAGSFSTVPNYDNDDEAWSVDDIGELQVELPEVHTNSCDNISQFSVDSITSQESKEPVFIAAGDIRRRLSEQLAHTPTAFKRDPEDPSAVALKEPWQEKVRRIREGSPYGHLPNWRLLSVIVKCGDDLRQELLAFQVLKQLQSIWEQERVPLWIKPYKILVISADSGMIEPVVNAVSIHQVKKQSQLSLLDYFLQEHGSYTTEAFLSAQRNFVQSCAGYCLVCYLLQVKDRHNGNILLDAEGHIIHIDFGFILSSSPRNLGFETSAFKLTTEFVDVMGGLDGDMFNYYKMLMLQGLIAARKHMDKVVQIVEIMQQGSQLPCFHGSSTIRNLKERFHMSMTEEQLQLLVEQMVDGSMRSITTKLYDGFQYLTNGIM
Mitogen-activated protein kinase kinase kinase 9, sequence (P80192 whole entry): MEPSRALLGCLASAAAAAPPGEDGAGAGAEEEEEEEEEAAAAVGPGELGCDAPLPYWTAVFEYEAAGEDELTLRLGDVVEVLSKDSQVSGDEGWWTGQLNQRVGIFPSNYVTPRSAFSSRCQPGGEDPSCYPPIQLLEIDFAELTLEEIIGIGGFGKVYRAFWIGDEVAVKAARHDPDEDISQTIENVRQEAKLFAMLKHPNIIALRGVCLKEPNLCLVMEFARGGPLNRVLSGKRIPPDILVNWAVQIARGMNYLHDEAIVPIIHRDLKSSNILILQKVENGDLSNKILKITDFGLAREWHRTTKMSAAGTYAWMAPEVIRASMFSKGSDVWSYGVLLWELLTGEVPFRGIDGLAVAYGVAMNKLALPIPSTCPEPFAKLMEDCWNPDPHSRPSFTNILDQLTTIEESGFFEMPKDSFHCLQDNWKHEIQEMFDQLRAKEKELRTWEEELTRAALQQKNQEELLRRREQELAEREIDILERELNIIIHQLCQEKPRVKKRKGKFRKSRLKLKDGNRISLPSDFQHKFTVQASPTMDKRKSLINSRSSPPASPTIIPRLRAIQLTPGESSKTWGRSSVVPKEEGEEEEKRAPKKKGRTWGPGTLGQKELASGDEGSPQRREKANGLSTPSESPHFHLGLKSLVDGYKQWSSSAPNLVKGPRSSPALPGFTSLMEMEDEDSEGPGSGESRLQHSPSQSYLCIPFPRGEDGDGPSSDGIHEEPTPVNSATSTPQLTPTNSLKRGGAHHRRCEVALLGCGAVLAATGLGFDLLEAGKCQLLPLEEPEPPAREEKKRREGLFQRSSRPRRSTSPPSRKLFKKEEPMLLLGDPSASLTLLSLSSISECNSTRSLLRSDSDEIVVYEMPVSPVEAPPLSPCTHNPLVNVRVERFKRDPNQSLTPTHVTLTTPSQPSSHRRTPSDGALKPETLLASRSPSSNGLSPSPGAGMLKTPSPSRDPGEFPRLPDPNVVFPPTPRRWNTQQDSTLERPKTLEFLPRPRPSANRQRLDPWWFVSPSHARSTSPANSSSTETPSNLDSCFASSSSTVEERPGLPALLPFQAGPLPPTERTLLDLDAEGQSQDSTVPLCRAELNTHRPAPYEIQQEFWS

IC50 [1]: > 1 µM | clearance [2]: 3.06 L/h/kg | IC50 (PC-3): 0.49 µM | inhibition [9]: inactive | IC50 [13]: 0.0052 µM | IC50 [14]: > 1 µM | IC50 [15]: 0.75 µM | AUC [16]: 4.8 µM·h
Compound: Cc1nc(N)ncc1-c1nc(N2CCOCC2)c2sc(C(C)(C)O)cc2n1
Activity (Mus musculus [3]): Non-toxic | inhibition in vivo at 12.5 mg/kg (Mus musculus [4]): 100% | inhibition in vivo at 6.25 mg/kg (Mus musculus [5]): 43% | inhibition in vivo at 25 mg/kg (Mus musculus [6]): 97% | inhibition in vivo at 12.5 mg/kg (Mus musculus [7]): 90% | Activity (Mus musculus [8]): Non-toxic | IC50 [10]: 0.28 µM | inhibition in vivo at 12.5 mg/kg (Mus musculus [11]): 50% | inhibition in vivo at 12.5 mg/kg (Mus musculus [12]): 77% | inhibition in vivo at 12.5 mg/kg (Mus musculus [17]): 83% | inhibition in vivo at 6.25 mg/kg (Mus musculus [18]): 81% | inhibition in vivo at 25 mg/kg (Mus musculus [19]): 82% | inhibition in vivo at 25 mg/kg (Mus musculus [20]): 63%
